Laboratory results reported in patent US6624190B2, “2-acylamino-2-deoxy-glucono-1,5-lactones, a method for the production thereof, compositions containing them, and uses thereof” (Universite Pierre et Marie Curie (Paris VI), priority 1998, dated 2003).

What was measured:
[1] = comparison values; cited from earlier work
[2] = biological target: T1, chicken lysozyme (Gallus gallus, UniProt P00698); assay: Lysozyme inhibition, Micrococcus lysodeikticus walls substrate; assay type: biochemical
T1 construct: purchased Sigma L-6876
Description: The enzyme studied was 0.5 g/l chicken lysozyme (Sigma, L-6876) in a 100 mM, pH 6.5 phosphate buffer and the substrate was constituted by 17 mg/100 ml of Micrococcus lysodeikticus walls in suspension in the same buffer.
Protocol: 100 μl of enzymatic solution was diluted with 400 μl of inhibitor solution. This was left at ambient temperature for 5 or 10 minutes. 40 μl of mixture was added to 3 ml of the substrate suspension in a spectrophotometer cell. The optical density was recorded at 450 nm every 10 seconds for 3 minutes.

[3] = test system: bovine kidney β—N-acetyl glucosaminidase (EC 3.2.1.52); assay: N-acetyl glucosaminidase (NaGase) enzymatic inhibition, pNphNAG substrate; assay type: biochemical
Description: The enzyme used as a reference was bovine kidney β—N-acetyl glucosaminidase (EC 3.2.1.52) (Sigma A-2415) and its substrate was p-nitrophenyl 2-acetamido-2-deoxy glucopyranoside (Acros 22941-1000) (pNphNAG). The commercially available enzyme, in the form of a suspension in a 3.2 M solution of (NH4)2SO4, was centrifuged at 13000 rpm for 5 minutes and the residue was taken up in 1 ml of water. The solution obtained was the mother enzymatic solution.
Protocol: 100 μl of the enzymatic solution diluted to 1/10 was mixed with 100 μl of pH 4.2 citrate buffer and 300 μl of inhibitor solution (or water for the reference) and incubated at 37° C. for 5 minutes in a spectrophotometer cell. After adding 500 μl of substrate (5 mM or 2.5 mM), incubation was continued for 8 minutes at 37° C. and the optical density at 400 nm was monitored. The quantity of p-nitrophenol liberated by the enzymatic reaction was determined by correlating the optical density to a calibration curve (OD at 400 nm=f([p-nitrophenol])). The N-acetyl glucosaminidase activity unit was defined as the quantity of enzyme required to liberate one μmole of p-nitrophenol per minute under the conditions cited above.
I50 is defined as the concentration of compound capable of inhibiting 50% of the enzymatic activity under the assay conditions.
We colorimetrically monitored the quantities of p-nitrophenol liberated (in 10^−3 μmol/mn) by the action of N-acetyl glucosaminidase (NaGase) on pNphNAG (2.5 mM) in the presence of increasing quantities of (i) (concentration C in mM).
In order to determine the inhibition constant K1, we used Dixon's graphical method, which consisted of plotting the inverse of the initial velocity (1 Iv0) of the enzymatic reaction against the inhibitor concentration (C, in μM) for two different substrate concentrations. The abscissa of the intersection point of the two straight lines corresponds to —K1.

[4] = Determination of critical micellar concentration by surface tension (Wilhelmy plate method); assay type: physicochemical
Description: The surface tension γ of a liquid in contact with air was measured at 25° C. by the Wilhelmy plate method (Prolabo TENSIMAT n3 tensometer). This consisted of plunging a vertical platinum strip (19.54 mm long) into a liquid then gradually withdrawing it, monitoring the tension exerted on the strip by the liquid film. The maximum value recorded before complete detachment of the strip represented the surface tension, expressed in mN/m. After calibrating the apparatus (calibration at two points: the zero value with the strip in air and a value of 50.2 mN/m with the strip tested with a weight of 200 mg), the surface tensions of solutions containing increasing quantities of the surfactant were recorded (measurements repeated three times). The critical micellar concentration was obtained from conventional graphs of γ=f(logC) where C represents the concentration in mol/l.
The change in surface tension γ (in mN/m) of an aqueous solution (volume=10 ml) was monitored as a function of the quantities of dissolved product (C, in Mol/l) (A=C(O)C7H15 and R2=CH3). The critical micellar concentration corresponds to the concentration above which the surface tension becomes a constant.

T1 sequence (P00698 19-147): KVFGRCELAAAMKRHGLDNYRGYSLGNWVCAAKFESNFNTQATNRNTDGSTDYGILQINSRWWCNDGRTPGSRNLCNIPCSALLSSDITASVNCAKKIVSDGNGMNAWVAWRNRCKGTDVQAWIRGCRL

effect on lysozyme activity ([2]; 0.1 mg/ml lysozyme, compound 1.8 mM)	affinity for lysozyme ([2]; summary)	nature of inhibition ([3]; Dixon diagram)	Ki ([3]; Dixon's graphical method, substrate 2.5 mM and 5 mM, read-out: inhibition constant K1)	IC50 ([3]; pNphNAG 2.5 mM, pH 4.2 citrate buffer, 37° C., read-out: I50)	critical micellar concentration (CMC) ([4]; aqueous solution, 25° C.)	surface tension of water reduced to ([4]; reduction from 71 mN/m for concentrations of 0 to 25 mM (8.6 g/l))	Structure (SMILES)	critical micellar concentration (CMC) of commercially available glycosylated surfactants [1]
–	–	–	–	–	–	–	CCCCCCCCO[C@@H]1O[C@H](CO)[C@@H](O)[C@H](O)[C@H]1O [octyl glucoside, n-octyl glucoside]	18 mM
No difference was detected	no affinity	competitive	~3 µM	~7 µM	25 mM	30 mN/m	CCCCCCCC(=O)OC[C@H]1OC(=O)[C@H](NC(C)=O)[C@@H](O)[C@@H]1O [(i), 2-acetamido-2-deoxy-6—O-octanoyl-glucono-1,5-lactone]	–
–	–	–	–	–	–	–	CCCCCCCNC(=O)OC[C@H]1O[C@H](OC)[C@H](O)[C@@H](O)[C@@H]1O [HECAMEG]	22 mM
